The values that follow come from patent publication US20080241234A1, “PHARMACEUTICAL FORMULATIONS OF AN ANHYDRATE CRYSTAL FORM OF 2-(3-FLUORO-4-HYDROXYPHENYL)-7-VINYL-1,3-BENZOXAZOL-5-OL” (WYETH, priority 2006, published 2008).

This data set is described as follows: Crystal form conversion on suspending and stirring in a solvent at room temperature. In kind it is physicochemical. An excerpt:
The anhydrate crystal form (Form E) can be converted to other crystal forms under suitable conditions. […] 6, 2006).

`C=Cc1cc(O)cc2nc(-c3ccc(O)c(F)c3)oc12` [Form E, 2-(3-fluoro-4-hydroxyphenyl)-7-vinyl-1,3-benzoxazol-5-ol]: the “crystal form obtained after suspension and stirring in ethanol or acetone” value (suspended and stirred in ethanol or acetone at room temperature for seven days) was “another anhydrate crystal form is obtained”. In addition, the “crystal form obtained after suspension and stirring in water” value (suspended and stirred in water at room temperature for seven days) is “converted to a hydrate crystal form”.
